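Briefly, cells in 96-well plates were exposed to five compound concentrations for 48 h, and endpoints were estimated by linear interpolation. Here, GI50 denotes the concentration required for 50% inhibition of growth. TGI denotes the concentration required for complete inhibition of growth.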
What was measured:
Assay in all cases: growth of human tumour cells (NCI), 48 h
[1] = system: KM12 colon
[2] = system: CCRF-CEM leukemia
[3] = system: HCT-15 colon
[4] = system: HL-60(TB) leukemia
[5] = system: MALME-3M melanoma
[6] = system: U251 CNS
[7] = system: HOP-92 NSCLC
[8] = system: EKVX NSCLC
[9] = system: NCI-H23 lung
[10] = system: A549 NSCLC
[11] = system: BT-549 breast
[12] = system: IGROV1 ovarian
[13] = system: SR leukemia
[14] = system: PC-3 prostate
[15] = system: UACC-257 melanoma
[16] = system: DU-145 prostate
[17] = system: NCI-H460 lung
[18] = system: LOX IMVI melanoma
[19] = system: NCI/ADR-RES ovarian
[20] = system: NCI-H226 lung
[21] = system: OVCAR-8 ovarian
[22] = system: SF-295 CNS
[23] = system: HOP-62 NSCLC
[24] = system: MDA-MB-435
[25] = system: OVCAR-3 ovarian
[26] = system: HCT-116 colon
[27] = system: COLO 205 colon
[28] = system: SF-539 CNS
[29] = system: SNB-19 CNS
[30] = system: RPMI-8226 leukemia
[31] = system: T-47D breast
[32] = system: HS 578T breast
[33] = system: SK-MEL-28 melanoma
[34] = system: RXF 393 renal
[35] = system: 786-0 renal
[36] = system: OVCAR-4 ovarian
[37] = system: SF-268 CNS
[38] = system: HT29 colon
[39] = system: HCC-2998 colon
[40] = system: TK-10 renal
[41] = system: SW-620 colon
[42] = system: SNB-75 CNS
[43] = system: A498 renal
[44] = system: UO-31 renal
[45] = system: ACHN renal
[46] = system: NCI-H522 lung
[47] = system: UACC-62 melanoma
[48] = system: K-562 leukemia
[49] = system: SK-MEL-5 melanoma
[50] = system: MCF7 breast
[51] = system: MOLT-4 leukemia
[52] = system: SK-MEL-2 melanoma
[53] = system: SN12C renal
[54] = system: MDA-MB-231 breast
[55] = system: SK-OV-3 ovarian
[56] = system: CAKI-1 renal
[57] = system: OVCAR-5 ovarian
[58] = system: M14 melanoma

Cc1cc2cc3c(Cl)c(CCCl)c(C)nc3cc2c(Cl)c1CCCl
TGI [1]: 46.4 µM | TGI [2]: 48.9 µM | TGI [3]: > 100 µM | TGI [4]: 27.3 µM | TGI [5]: 45.7 µM | TGI [6]: 60 µM | TGI [7]: 35.4 µM | TGI [8]: 42.3 µM | TGI [9]: 63.6 µM | TGI [10]: 57.2 µM | TGI [11]: 47.7 µM | TGI [12]: > 100 µM | TGI [13]: 32.9 µM | TGI [14]: 39.6 µM | TGI [15]: 34.8 µM | TGI [16]: 80.3 µM | TGI [17]: 34.2 µM | TGI [18]: 29.5 µM | TGI [19]: 61.8 µM | TGI [20]: 20.5 µM | TGI [21]: 94.5 µM | TGI [22]: 35.2 µM | TGI [23]: 27.8 µM | TGI [24]: 30.8 µM | TGI [25]: 34.4 µM | TGI [26]: 31.8 µM | TGI [27]: 36.1 µM | TGI [28]: 30 µM | TGI [29]: 85.9 µM | TGI [30]: 36.5 µM | TGI [31]: 69.8 µM | TGI [32]: 30.6 µM | TGI [33]: 35.1 µM | TGI [34]: 17.5 µM | TGI [35]: 78.6 µM | TGI [36]: 66.3 µM | TGI [37]: 30.9 µM | TGI [38]: > 100 µM | TGI [39]: 39.7 µM | TGI [40]: > 100 µM | TGI [41]: 76.8 µM | TGI [42]: > 100 µM | TGI [43]: 48.4 µM | TGI [44]: 50.9 µM | TGI [45]: 75.5 µM | TGI [46]: 37.7 µM | TGI [47]: 34.4 µM | TGI [48]: 43.3 µM | TGI [49]: 26.6 µM | TGI [50]: 56.7 µM | TGI [51]: 44.7 µM

Clc1ccc(N2CCN(CCCN3CCN(c4cccc(Cl)c4)CC3)CC2)cc1
GI50 [1]: 3.45 µM | TGI [1]: 15.6 µM | GI50 [2]: 3.8 µM | TGI [2]: 25.3 µM | GI50 [3]: 4.9 µM | TGI [3]: 22.4 µM | GI50 [4]: 2.33 µM | TGI [4]: 6.7 µM | GI50 [5]: 2.06 µM | TGI [5]: 6.15 µM | GI50 [6]: 5.45 µM | TGI [6]: 20.1 µM | GI50 [7]: 0.813 µM | TGI [7]: 11.4 µM | GI50 [8]: 4.5 µM | TGI [8]: 35.9 µM | GI50 [9]: 3.33 µM | TGI [9]: 17.8 µM | GI50 [52]: 14.3 µM | TGI [52]: 31.5 µM | GI50 [10]: 8.57 µM | TGI [10]: 28.4 µM | GI50 [11]: 3.72 µM | TGI [11]: 15.6 µM | GI50 [12]: 8.89 µM | TGI [12]: 24.6 µM | GI50 [53]: 7.51 µM | TGI [53]: 21.6 µM | GI50 [14]: 3.34 µM | TGI [14]: 16.4 µM | GI50 [15]: 4.33 µM | TGI [15]: 16.3 µM | GI50 [16]: 8.14 µM | TGI [16]: 21.4 µM | GI50 [17]: 3.78 µM | TGI [17]: 15.8 µM | GI50 [18]: 2.8 µM | TGI [18]: 13.8 µM | GI50 [19]: 4.6 µM | TGI [19]: 20.7 µM | GI50 [54]: 4.22 µM | TGI [54]: 18.6 µM | GI50 [20]: 6.51 µM | TGI [20]: 23.3 µM | GI50 [21]: 10.4 µM | TGI [21]: 28.1 µM | GI50 [22]: 3.74 µM | TGI [22]: 19.1 µM | GI50 [23]: 3.97 µM | TGI [23]: 18.1 µM | GI50 [24]: 3.36 µM | TGI [24]: 16.7 µM | GI50 [25]: 3.44 µM | TGI [25]: 15.3 µM | GI50 [55]: 10.7 µM | TGI [55]: 23.2 µM | GI50 [26]: 2.45 µM | TGI [26]: 12.2 µM | GI50 [27]: 1.62 µM | TGI [27]: 3.35 µM | GI50 [28]: 3.21 µM | TGI [28]: 12.4 µM | GI50 [29]: 11.3 µM | TGI [29]: 24.7 µM | GI50 [30]: 1.79 µM | TGI [30]: 7.84 µM | GI50 [56]: 7.43 µM | TGI [56]: 25.6 µM | GI50 [31]: 1.63 µM | TGI [31]: 14.3 µM | GI50 [32]: 4.82 µM | TGI [32]: 22 µM | GI50 [33]: 2.53 µM | TGI [33]: 8.27 µM | GI50 [34]: 6.7 µM | TGI [34]: 22.4 µM | GI50 [35]: 4.63 µM | TGI [35]: 18.5 µM | GI50 [36]: 5.77 µM | TGI [36]: 20.7 µM | GI50 [37]: 7.77 µM | TGI [37]: 21.4 µM | GI50 [57]: 9.12 µM | TGI [57]: 29.6 µM | GI50 [38]: 3.03 µM | TGI [38]: 13.5 µM | GI50 [39]: 2.65 µM | TGI [39]: 11.7 µM | GI50 [40]: 5.32 µM | TGI [40]: 21.3 µM | GI50 [58]: 1.57 µM | TGI [58]: 3.21 µM | GI50 [41]: 3.08 µM | TGI [41]: 14 µM | GI50 [42]: 2.52 µM | TGI [42]: 14.8 µM | GI50 [43]: 4.61 µM | TGI [43]: 18.8 µM | GI50 [44]: 3.56 µM | TGI [44]: 16.2 µM | GI50 [45]: 7.77 µM | TGI [45]: 21.5 µM | GI50 [46]: 14.7 µM | TGI [46]: 34 µM | GI50 [47]: 2.86 µM | TGI [47]: 11.3 µM | GI50 [48]: 1.45 µM | TGI [48]: 6.08 µM | GI50 [49]: 1.6 µM | TGI [49]: 3.46 µM | GI50 [50]: 2.92 µM | TGI [50]: 12.2 µM | GI50 [51]: 2.01 µM | TGI [51]: 17.4 µM

— PubChem BioAssay (NCI)
